Data from patent publication US12116461B2, “Host-guest interactions for pa superstructure formation” (Northwestern University, priority 2020, dated 2024).
Where a SMILES comes first, the peptide text is derived from it. The star is where a group is joined. Palmitoyl = CCCCCCCCCCCCCCCC(=O)*

Legend:
[1] = Thixotropy interval study (before/after high shear); format: physicochemical
Experimental: (§1) PA materials were prepared and annealed using methods described in section 2.1.1. An Anton Paar MCR302 Rheometer with a 25 mm cone plate was used for all rheological studies. 150 μL of PA liquid was placed on the sample stage. For experiments using Free Adamantane, 30 μL of either 1 mM or 2 mM adamantane solution (prepared as described in section 2.1.3) was added in droplets to the top plunger. The plunger was then lowered to the measuring position and a humidity collar was added during the “sample trim” phase to prevent sample evaporation during the measurement. The sample was equilibrated for 30 minutes with a constant angular frequency of 10 rad/s and 0.1% strain. The storage and loss modulus were recorded. For thixotropy studies, the sample was applied to the stage as previously mentioned. The first and third interval consisted of 10, 6 second points with an oscillating shear strain of 0.1% and angular frequency of 10 rad/s. The storage and loss modulus were plotted against time. The second interval consisted of 10, 1 second points with a constant shear rate of 100 s^−1. The viscosity was plotted against time. For recovery experiments, G′ and G″ were measured during alternating intervals of low and high strain. The low strain interval was 200 seconds at 0.5% strain and the high strain interval was 50 seconds at 50% strain.

[2] = Rheological measurement of storage modulus; format: physicochemical; conditions: no free adamantane added
Experimental: as §1

[3] = 1H-NMR titration, association constant of β-cyclodextrin with 1-adamantaneacetic acid; conditions: 1:1 host-guest binding model; 125 mM NaCl, 3 mM KCl buffer pH 7.2-7.4, 25° C.
Experimental: The association constant for the binding between 1-adamantaneacetic acid and β-cyclodextrin was measured in 125 mM NaCl and 3 mM KCl buffer at pH 7.2-7.4. In a typical titration experiment, small amounts of a “guest solution” (100 mM 1-adamantaneacetic acid and 3.5 mM β-cyclodextrin in deuterated buffer) were added to approximately 0.8 ml of “host solution” (3.5 mM β-cyclodextrin in deuterated buffer) until at least 5 equiv of “guest” molecules were added. 1H-NMR spectra were obtained at 25° C. upon each addition of the “guest” solution and a binding isotherm was constructed by monitoring the protons on 1-adamantaneacetic acid.
The binding isotherms were fit to a standard 1:1 host-guest binding model (Eq. 1-3) where [HG] is the concentration of host-guest complex, [H]0 is the total concentration of “host” molecules, [G]0 is the total concentration of “guest” molecules, do is the proton peak position at [HG]/[H]0=0, δ is the proton peak position measured at different values of [HG]/[H]0, and δ∞ is a fitting parameter. All spectra were obtained with a X500 Bruker Avance III HD system equipped with a TXO Prodigy probe and analyzed with the MestreNova (Mestrelab Research) software.

Row | G′ after high shear ([1]; after high shear) | G′ before high shear ([1]; before high shear) | storage modulus (G′) [2] | SMILES | association constant (Ka) [3]
1 | 26.8 Pa | 43.9 Pa | 20±12 Pa | CCCCCCCCCCCCCCCC(=O)N[C@H](C(=O)N[C@H](C(=O)N[C@@H](C)C(=O)N[C@@H](C)C(=O)N[C@@H](CCC(=O)O)C(=O)N[C@@H](CCC(=O)O)C(N)=O)C(C)C)C(C)C [E2 PA, C16V2A2E2] (Palmitoyl-VVAAEE-NH2) | –
2 | – | – | – | OC[C@H]1O[C@@H]2O[C@H]3[C@H](O)[C@@H](O)[C@@H](O[C@H]4[C@H](O)[C@@H](O)[C@@H](O[C@H]5[C@H](O)[C@@H](O)[C@@H](O[C@H]6[C@H](O)[C@@H](O)[C@@H](O[C@H]7[C@H](O)[C@@H](O)[C@@H](O[C@H]8[C@H](O)[C@@H](O)[C@@H](O[C@H]1[C@H](O)[C@H]2O)O[C@@H]8CO)O[C@@H]7CO)O[C@@H]6CO)O[C@@H]5CO)O[C@@H]4CO)O[C@@H]3CO [β-cyclodextrin] | 395 M⁻¹
